Data reported in the supplement of paper PMC8149375.

What was measured:
Details in all cases: treatment: drug alone; 5 days
[1] = tested on: UO-31; experiment: GI50, drug alone; higher = less potent
Description: (§1)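 Primary HTS: 8 RCC cell lines treated with 8 doses (up to 10 uM) of each library drug alone for 5 days; viability read by CellTiter-Glo and normalised to DMSO. GI50 was fitted with XLfit (4-parameter), AUC is the area under the dose-response curve, and minimum viability is the lowest fraction of DMSO viability across doses.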

[2] = tested on: TK-10; experiment: GI50, drug alone; higher = less potent
Description: as §1

[3] = tested on: CAKI-1; experiment: GI50, drug alone; higher = less potent
Description: as §1

[4] = tested on: SN12C; experiment: GI50, drug alone; higher = less potent
Description: as §1

[5] = tested on: ACHN; experiment: GI50, drug alone; higher = less potent
Description: as §1

[6] = tested on: 769-P; experiment: GI50, drug alone; higher = less potent
Description: as §1

[7] = tested on: 786-O; experiment: GI50, drug alone; higher = less potent
Description: as §1

[8] = tested on: A498; experiment: GI50, drug alone; higher = less potent
Description: as §1

[9] = tested on: UO-31; experiment: minimum viability across doses, drug alone, relative to DMSO (fraction); higher = less growth inhibition
Description: as §1

[10] = tested on: TK-10; experiment: as above
Description: as §1

[11] = tested on: CAKI-1; experiment: as above
Description: as §1

[12] = tested on: SN12C; experiment: as above
Description: as §1

[13] = tested on: ACHN; experiment: as above
Description: as §1

[14] = tested on: 769-P; experiment: as above
Description: as §1

[15] = tested on: 786-O; experiment: as above
Description: as §1

[16] = tested on: A498; experiment: as above
Description: as §1

[17] = tested on: UO-31; experiment: AUC of dose-response viability curve, drug alone (arbitrary (AUC of normalised viability)); higher = less growth inhibition
Description: as §1

[18] = tested on: TK-10; experiment: as above
Description: as §1

[19] = tested on: CAKI-1; experiment: as above
Description: as §1

[20] = tested on: SN12C; experiment: as above
Description: as §1

[21] = tested on: ACHN; experiment: as above
Description: as §1

[22] = tested on: 769-P; experiment: as above
Description: as §1

[23] = tested on: 786-O; experiment: as above
Description: as §1

[24] = tested on: A498; experiment: as above
Description: as §1

Row | Compound | GI50, drug alone [1] | GI50, drug alone [2] | GI50, drug alone [3] | GI50, drug alone [4] | GI50, drug alone [5] | GI50, drug alone [6] | GI50, drug alone [7] | GI50, drug alone [8] | minimum viability across doses [9] | minimum viability across doses [10] | minimum viability across doses [11] | minimum viability across doses [12] | minimum viability across doses [13] | minimum viability across doses [14] | minimum viability across doses [15] | minimum viability across doses [16] | AUC of dose-response viability curve [17] | AUC of dose-response viability curve [18] | AUC of dose-response viability curve [19] | AUC of dose-response viability curve [20] | AUC of dose-response viability curve [21] | AUC of dose-response viability curve [22] | AUC of dose-response viability curve [23] | AUC of dose-response viability curve [24]
1 | CC1(C)CCC(CN2CCN(c3ccc(C(=O)NS(=O)(=O)c4ccc(NCC5CCOCC5)c([N+](=O)[O-])c4)c(Oc4cnc5[nH]ccc5c4)c3)CC2)=C(c2ccc(Cl)cc2)C1 [ABT-199 (GDC-0199 )] | > 10 µM | > 10 µM | > 10 µM | > 10 µM | > 10 µM | > 10 µM | < 0.003 µM | > 10 µM | 1.02 | 0.617 | 0.846 | 0.821 | 0.847 | 0.88 | 0.442 | 0.915 | 3.98 | 3.06 | 3.28 | 3.19 | 3.16 | 3.47 | 2.19 | 3.73
2 | CC1(C)CCC(c2ccc(Cl)cc2)=C(CN2CCN(c3ccc(C(=O)NS(=O)(=O)c4ccc(N[C@H](CCN5CCOCC5)CSc5ccccc5)c(S(=O)(=O)C(F)(F)F)c4)cc3)CC2)C1 [ABT-263 (Navitoclax)] | 0.784 µM | 1.07 µM | > 10 µM | > 10 µM | 2.28 µM | 3.17 µM | 0.181 µM | > 10 µM | 0.00527 | 0.163 | 0.603 | 0.524 | 0.0597 | 0.0787 | 0.00566 | 0.622 | 2.31 | 2.39 | 3.41 | 3.21 | 2.51 | 3.02 | 1.72 | 3
3 | CN(C)CC[C@H](CSc1ccccc1)Nc1ccc(S(=O)(=O)NC(=O)c2ccc(N3CCN(Cc4ccccc4-c4ccc(Cl)cc4)CC3)cc2)cc1[N+](=O)[O-] [ABT-737] | 3.08 µM | 4.57 µM | > 10 µM | > 10 µM | 5.69 µM | 9.18 µM | 0.501 µM | 5.36 µM | 0.00414 | 0.253 | 0.952 | 0.625 | 0.206 | 0.305 | 0.00151 | 0.1 | 4.03 | 2.43 | 3.76 | 3.25 | 2.88 | 3.47 | 1.66 | 3.25
4 | CCN1CCN(Cc2ccc(-c3cc4c(N[C@H](C)c5ccccc5)ncnc4[nH]3)cc2)CC1 [AEE788 (NVP-AEE788)] | 7.87 µM | 0.581 µM | 3.19 µM | 4.79 µM | 0.415 µM | 1.64 µM | 8.51 µM | > 10 µM | 0.0104 | 0.0159 | 0.0495 | 0.276 | 0.0622 | 0.0865 | 0.108 | 0.898 | 3.98 | 2.13 | 2.81 | 2.77 | 2.1 | 2.61 | 3.45 | 3.87
5 | N#C/C(=C\c1ccc(O)c(O)c1)C(=O)NCc1ccccc1 [AG-490] | > 10 µM | > 10 µM | > 10 µM | > 10 µM | 7.43 µM | > 10 µM | 5.99 µM | > 10 µM | 0.843 | 0.615 | 0.948 | 0.788 | 0.301 | 0.823 | 0.369 | 1.04 | 4.19 | 3.21 | 3.57 | 3.37 | 3.09 | 3.27 | 2.89 | 3.87
6 | CC(C)(C)c1cc(C=C(C#N)C#N)cc(Br)c1O [AG-1024] | > 10 µM | > 10 µM | > 10 µM | > 10 µM | > 10 µM | > 10 µM | > 10 µM | > 10 µM | 1.24 | 0.791 | 0.846 | 0.919 | 0.904 | 0.853 | 0.729 | 1.02 | 4.79 | 3.13 | 3.65 | 3.53 | 3.56 | 3.41 | 2.78 | 3.94
7 | COc1cc2ncnc(Nc3cccc(Cl)c3)c2cc1OC [AG-1478 (Tyrphostin AG-1478)] | > 10 µM | 2.85 µM | > 10 µM | > 10 µM | 1.16 µM | 3.24 µM | 5.49 µM | > 10 µM | 0.795 | 0.472 | 0.628 | 0.813 | 0.37 | 0.481 | 0.179 | 1.01 | 4.04 | 2.36 | 2.91 | 2.95 | 2.24 | 2.48 | 2.32 | 4.85
8 | COc1ccc2c(Oc3ccc(NC(=O)c4c(C)n(CC(C)(C)O)n(-c5ccccc5)c4=O)nc3)ccnc2c1 [AMG458] | > 10 µM | > 10 µM | 8.65 µM | > 10 µM | 4.79 µM | > 10 µM | 4.55 µM | > 10 µM | 0.597 | 0.66 | 0.449 | 0.71 | 0.262 | 0.971 | 0.25 | 0.859 | 3.98 | 3.29 | 3.32 | 3.13 | 3.03 | 3.55 | 2.82 | 3.66
9 | Cc1csc(-c2nnc(Nc3ccc(Oc4ncccc4-c4ccnc(N)n4)cc3)c3ccccc23)c1 [AMG 900] | > 10 µM | > 10 µM | 0.672 µM | 4.57 µM | 0.171 µM | 0.109 µM | 0.0169 µM | > 10 µM | 0.875 | 0.561 | 0.425 | 0.479 | 0.231 | 0.287 | 0.0401 | 0.776 | 3.73 | 2.41 | 2.02 | 2.49 | 1.72 | 1.64 | 0.822 | 4.67
